# Patent US20140005119A1, “COMPOSITIONS AND METHODS FOR INHIBITING THE ACTIVITY OF P110a MUTANT PROTEINS” (Case Western Reserve University, priority 2012, published 2014)
# Key:
# [1] = test system: AKT and Foxo1 phosphorylation; assay: Immunoblot of AKT signaling in peptide-treated xenograft tumors; assay type: in vivo, mice
# Procedure: FIG. 6 is an immunoblot illustrating the stapled mutant peptide inhibits AKT signaling in xenograft tumors.
# Five-week-old male athymic nude mice were injected with 5 million cells subcutaneously and bilaterally. When tumor sizes reached 100-150 mm^3, 10 mice with similar sized tumors on both flanks were selected. The left flank tumors were injected with stapled WT p110α peptide, whereas the right flank tumors were injected with stapled p110α E545K mutant peptide. Each tumor was injected with 250 μg of peptide daily for 14 days. Control xenograft tumors were injected with an equal volume of water. The tumor sizes were measured every 2 days.
# p110α = assay: Immunoblot of treated cell lines, p110α protein level; assay type: cell-based, human
# Procedure: FIG. 4(A-F) illustrate: (A) Schematic diagram of linear and stapled WT and mutant peptides derived from p110α (SEQ ID NOs: 5, 6, 7 and 8). (B) Immunoblots of cell lysates immunoprecipitated with beads conjugated with anti-FLAG antibodies and then blotted with the indicated antibodies. Linear or stapled WT and mutant peptide were added into culture medium of the p110α E545K 3×FLAG KI cells for 16 hr. (C) Immunoblots of cell lysates immunoprecipitated with anti-p110α antibodies and then blotted with the indicated antibodies. Vaco481 CRC cells were treated with the stapled mutant peptides at the indicated concentration. (D) Immunoblots of cell lysates blotted with the indicated antibodies. The indicated cell lines were treated with the stapled mutant peptide. (E) Immunoblots of cell lysates blotted with the indicated antibodies. […]
# (§1) For Co-immunoprecipitation (Co-IP), cells were harvested, washed with PBS, and then lysed in IP buffer (50 mMTris [pH 7.4], 150 mMNaCl, 5 mMEDTA [pH 8.0], 0.5% NP40, 1 mM PMSF, complete Protease Inhibitor Cocktail tablet [Roche]; supplemented with phosphatase inhibitors [1 mM Na3VO4, 20 mM NaF, 0.1 mM b-glycerophosphate, 20 mM sodium pyrophosphate] when necessary). […] Lysates were then cleared by centrifugation (14,000 rpm, 10 min) and protein concentration in supernatants was determined with a BCA protein assay kit (Pierce, Rockford, Ill.). […]
# p110α-p85 interaction = biological target: T1, p110α-p85 interaction (Homo sapiens, UniProt P42336, E545K); assay: Peptide competition assay in cell lysates, p110α-p85 interaction; assay type: binding
# T1 construct: tag the endogenous WT or mutant p110α with 3×FLAG at their C termini in DLD1 cells; endogenous in cells; host or cells: DLD1 p110α E545K 3×FLAG knock-in cells
# Procedure: FIGS. 3(A-M) illustrate: (A, B) Mapping peptides (P3, SEQ ID NO: 1; P4 SEQ ID NO: 2; P5, SEQ ID NO: 3; P6, SEQ ID NO: 4) derived from mutant p110α that inhibit interaction between IRS1 and p110α E545K. The indicated peptides were added into cell lysates made from the p110α E545K 3×FLAG KI cells. Cell lysates were immunoprecipitated with beads conjugated with anti-FLAG antibodies and then blotted with anti-IRS1 antibodies. (C) Immunoblots of cell lysates made from the p110α E545K 3×FLAG KI cells. Cell lysates were immunoprecipitated with beads conjugated with anti-FLAG antibodies and then blotted with the indicated antibodies. […] (J, K) Immunoblot and graph of purified recombinant p110α E545K mutant proteins mixed with the indicated components and quantified using an in vitro lipid kinase assay. […]
# as §1
# AKT phosphorylation = assay: Immunoblot of AKT phosphorylation in cancer cell lines treated with stapled peptides; assay type: cell-based, human; design: AKT phosphorylation / AKT phosphorylation at both T308 and 5473 residues: dose or concentration left out as unconfirmed
# Procedure: FIGS. 3(A-M) illustrate: (A, B) Mapping peptides (P3, SEQ ID NO: 1; P4 SEQ ID NO: 2; P5, SEQ ID NO: 3; P6, SEQ ID NO: 4) derived from mutant p110α that inhibit interaction between IRS1 and p110α E545K. The indicated peptides were added into cell lysates made from the p110α E545K 3×FLAG KI cells. Cell lysates were immunoprecipitated with beads conjugated with anti-FLAG antibodies and then blotted with anti-IRS1 antibodies. (C) Immunoblots of cell lysates made from the p110α E545K 3×FLAG KI cells. Cell lysates were immunoprecipitated with beads conjugated with anti-FLAG antibodies and then blotted with the indicated antibodies. (D) Immunoblots of cell lysate of Myc-tagged IRS1 plasmid, which co-transfected an ABD domain deletion construct of the FLAG-tagged p110α E545K mutant (ΔABD), incubated with the indicated amount of stapled p110α mutant peptides, and then immunoprecipitated with anti-FLAG antibodies and blotted with the indicated antibodies. (J, K) Immunoblot and graph of purified recombinant p110α E545K mutant proteins mixed with the indicated components and quantified using an in vitro lipid kinase assay. (L, M) Immunoblots of the indicated cell lines serum-starved, stimulated with 1 μg/ml insulin for 30 min, and then treated with or without the indicated peptides. Cell lysates were blotted with the indicated antibodies. All error bars show mean±SEM. *p<0.05, **p<0.001, t test.
# FIG. 4(A-F) illustrate: (A) Schematic diagram of linear and stapled WT and mutant peptides derived from p110α (SEQ ID NOs: 5, 6, 7 and 8). (B) Immunoblots of cell lysates immunoprecipitated with beads conjugated with anti-FLAG antibodies and then blotted with the indicated antibodies. Linear or stapled WT and mutant peptide were added into culture medium of the p110α E545K 3×FLAG KI cells for 16 hr. (C) Immunoblots of cell lysates immunoprecipitated with anti-p110α antibodies and then blotted with the indicated antibodies. Vaco481 CRC cells were treated with the stapled mutant peptides at the indicated concentration. (D) Immunoblots of cell lysates blotted with the indicated antibodies. The indicated cell lines were treated with the stapled mutant peptide. (E) Immunoblots of cell lysates blotted with the indicated antibodies. The indicated cancer cell lines were treated or untreated with stapled WT or mutant peptide at […] for 2 hr. (F) Immunoblots of cell lysates were blotted with the indicated antibodies. The indicated cancer cell lines were treated with or without […] of stapled mutant peptide for 2 hr.
# Colorectal cancer (CRC) cell lines DLD1, HCT116, Vaco481 and genetically engineered CRC cell lines were maintained in McCoy's 5A medium containing 10% fetal bovine serum (FBS). Lung cancer cell line H460 and breast cancer cell line T47D were cultured in RPMI 1640 medium plus 10% of FBS. Breast cancer cell line MDA-MB361 was maintained in Leibovitz's L-15 medium with 20% FBS. Human embryonic kidney HEK293 cells were cultured in DMEM medium containing 10% FBS. Mammalian cells were transfected with Lipofectamine in accordance with the manufacturer's instructions (Invitrogen).
# For Co-immunoprecipitation (Co-IP), cells were harvested, washed with PBS, and then lysed in IP buffer (50 mMTris [pH 7.4], 150 mMNaCl, 5 mMEDTA [pH 8.0], 0.5% NP40, 1 mM PMSF, complete Protease Inhibitor Cocktail tablet [Roche]; supplemented with phosphatase inhibitors [1 mM Na3VO4, 20 mM NaF, 0.1 mM b-glycerophosphate, 20 mM sodium pyrophosphate] when necessary). For immunoblotting (IB) of phospho-specific proteins, unless stated otherwise, cells were lysed in urea buffer (100 mM NaH2PO4, 10 mM Tris-HCl, 8 M Urea, 1 mM Na3VO4, 20 mM NaF, 0.1 mM β-glycerophosphate, 20 mM sodium pyrophosphate, supplemented with complete Protease Inhibitor Cocktail tablet [Roche], pH 8.0). Lysates were then cleared by centrifugation (14,000 rpm, 10 min) and protein concentration in supernatants was determined with a BCA protein assay kit (Pierce, Rockford, Ill.). […]
# [2] = peptide-treated xenograft tumors
# T1 sequence (P42336 whole entry E545K): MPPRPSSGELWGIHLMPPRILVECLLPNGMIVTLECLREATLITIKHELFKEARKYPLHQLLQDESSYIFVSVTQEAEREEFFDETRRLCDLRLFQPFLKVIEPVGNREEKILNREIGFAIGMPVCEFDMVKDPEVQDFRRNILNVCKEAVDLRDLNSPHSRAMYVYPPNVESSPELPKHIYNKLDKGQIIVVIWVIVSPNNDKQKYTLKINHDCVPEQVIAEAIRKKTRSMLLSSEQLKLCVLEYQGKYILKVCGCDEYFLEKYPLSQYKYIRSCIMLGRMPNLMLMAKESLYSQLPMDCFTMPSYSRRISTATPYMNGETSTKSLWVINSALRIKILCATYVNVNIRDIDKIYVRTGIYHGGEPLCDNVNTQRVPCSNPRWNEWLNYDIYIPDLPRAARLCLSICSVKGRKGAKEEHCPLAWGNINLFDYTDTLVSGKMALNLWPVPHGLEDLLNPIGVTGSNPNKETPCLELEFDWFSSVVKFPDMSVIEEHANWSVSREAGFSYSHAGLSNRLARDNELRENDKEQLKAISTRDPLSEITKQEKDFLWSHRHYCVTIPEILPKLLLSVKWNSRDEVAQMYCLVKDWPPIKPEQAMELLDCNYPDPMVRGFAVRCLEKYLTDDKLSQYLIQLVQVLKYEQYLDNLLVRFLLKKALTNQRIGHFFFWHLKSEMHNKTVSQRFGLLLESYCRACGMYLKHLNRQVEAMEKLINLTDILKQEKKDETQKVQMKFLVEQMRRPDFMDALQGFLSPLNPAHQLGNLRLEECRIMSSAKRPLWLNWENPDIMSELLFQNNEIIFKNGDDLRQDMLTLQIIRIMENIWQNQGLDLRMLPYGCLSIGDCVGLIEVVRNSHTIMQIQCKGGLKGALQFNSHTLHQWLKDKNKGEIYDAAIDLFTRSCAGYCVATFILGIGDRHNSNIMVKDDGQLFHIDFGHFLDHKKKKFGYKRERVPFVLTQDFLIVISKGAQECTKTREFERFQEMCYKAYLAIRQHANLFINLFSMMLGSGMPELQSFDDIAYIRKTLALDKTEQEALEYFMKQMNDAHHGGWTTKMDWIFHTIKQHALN
# T1 sequence (P27986 whole entry partner): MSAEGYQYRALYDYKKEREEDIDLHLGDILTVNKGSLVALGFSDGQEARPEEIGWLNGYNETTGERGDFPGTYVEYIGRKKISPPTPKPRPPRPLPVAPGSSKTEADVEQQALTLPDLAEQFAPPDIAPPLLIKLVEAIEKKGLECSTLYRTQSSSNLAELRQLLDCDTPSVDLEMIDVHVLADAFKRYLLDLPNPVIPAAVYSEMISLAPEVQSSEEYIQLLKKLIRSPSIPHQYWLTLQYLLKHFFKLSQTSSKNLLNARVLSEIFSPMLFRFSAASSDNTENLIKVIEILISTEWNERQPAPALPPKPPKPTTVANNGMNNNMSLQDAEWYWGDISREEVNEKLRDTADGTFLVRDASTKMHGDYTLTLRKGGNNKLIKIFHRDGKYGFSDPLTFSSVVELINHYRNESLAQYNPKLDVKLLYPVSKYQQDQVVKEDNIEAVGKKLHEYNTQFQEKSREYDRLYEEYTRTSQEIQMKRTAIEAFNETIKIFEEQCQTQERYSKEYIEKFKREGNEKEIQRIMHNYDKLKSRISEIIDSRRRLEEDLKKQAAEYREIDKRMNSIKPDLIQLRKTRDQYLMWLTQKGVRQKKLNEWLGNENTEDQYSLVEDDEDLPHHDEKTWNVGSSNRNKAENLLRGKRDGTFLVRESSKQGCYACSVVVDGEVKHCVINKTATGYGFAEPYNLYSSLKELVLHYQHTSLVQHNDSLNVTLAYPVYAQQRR
substance,measurement,setting,value
H2N-SEITKQEK-D^549-FLW-S^553-HRHYC-COOH [stapled mutant peptide],AKT signaling in xenograft tumors,[1]; FIG. 6 legend,inhibits
same,AKT and Foxo1 phosphorylation in xenograft tumors,[1]; [2],reduced
same,AKT phosphorylation at T308 and S473 residues in xenograft tumors,[1]; [2],only decreased AKT phosphorylation at the S473 residue
same,protein levels of p110α,p110α,slightly reduce
same,effect on p110α-p85 interaction,p110α-p85 interaction,no effects
same,AKT phosphorylation at both T308 and 5473 residues,AKT phosphorylation; DLD1 cells harboring p110α E545K,reduced
same,AKT phosphorylation at both T308 and 5473 residues,AKT phosphorylation; H460 cells harboring p110α E545K,reduced
same,AKT phosphorylation,AKT phosphorylation; HCT116 cells harboring p110α H1047R,no effect
same,AKT phosphorylation at both T308 and 5473 residues,AKT phosphorylation; MDA-MB361 cells harboring p110α E545K,reduced
same,AKT phosphorylation,AKT phosphorylation; RKO cells harboring p110α H1047R,no effect
same,AKT phosphorylation,AKT phosphorylation; T47D cells harboring p110α H1047R,no effect
same,AKT phosphorylation at both T308 and 5473 residues,AKT phosphorylation; Vaco481 cell line harboring p110α Q546P,reduced
same,AKT phosphorylation,AKT phosphorylation; WT-only DLD1 cells,did not affect
same,AKT phosphorylation,AKT phosphorylation; mutant-only DLD1 cells,reduced
same,AKT phosphorylation when cell lines were stimulated by insulin,"AKT phosphorylation; serum-starved, 1 μg/ml insulin for 30 min",no effect
same,AKT phosphorylation in cancer cells,AKT phosphorylation; summary statement on FIG. 4,reduced
